Here are results for 11 molecules from patent publication US12643871B2, “Aryl formamide compound containing chiral sulfur oxide or salt thereof, preparation method, herbicidal composition and use thereof” (Qingdao Kingagroot Chemical Compound Co., Ltd., priority 2019, dated 2026).

Holding throughout (assay): Weeding effect in post-emergence stage
Type in all cases: in vivo
Holding throughout (conditions): 250 g/ha; 2 leaf stage; 15 days after application; fresh weight control rate

One assay relates to Echinochloa crusgali. Summed up:
(§1)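 Two-leaf-stage pot plants, spray-tower application at 500/250/125/60/30/15 g/ha with methyl oleate EC synergist; fresh weight control level (0–5) read at 15 days post-treatment, three replicates averaged.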

In a further assay the test system is Digitaria sanguinalis. Summed up: as §1
Another assay concerns Abutilon theophrasti. Summed up: as §1
The next assay has as its system Amaranthus retroflexus. Summed up: as §1
In the next assay the test system is Setaria viridis. Summed up: as §1

On to `CCOC[S+]([O-])c1c(C(F)(F)F)ccc(C(=O)Nc2nnc(C)o2)c1F` (stereo not shown) [Compound 70], for which, in the assay with Echinochloa crusgali, the “weeding effect in post-emergence stage, activity level (growth control rate), Echinochloa crusgali” value (“weeding effect … Echinochloa crusgali” below) is 5 (Level 5: growth control rate is above 85%). Also, the “weeding effect in post-emergence stage, activity level (growth control rate), Digitaria sanguinalis” value (shortened to “weeding effect … Digitaria sanguinalis”) in the assay on Digitaria sanguinalis is 5 (Level 5: growth control rate is above 85%). Moreover, the “weeding effect in post-emergence stage, activity level (growth control rate), Abutilon theophrasti” value (from here on “weeding effect … Abutilon theophrasti”) with Abutilon theophrasti was 5 (Level 5: growth control rate is above 85%). In the assay on Amaranthus retroflexus, the “weeding effect in post-emergence stage, activity level (growth control rate), Amaranthus retroflexus” value (“weeding effect … Amaranthus retroflexus” below) is recorded as 5 (Level 5: growth control rate is above 85%). Further, the “weeding effect in post-emergence stage, activity level (growth control rate), Setaria viridis” value (“weeding effect … Setaria viridis” for short) in the assay on Setaria viridis is on record as 5 (Level 5: growth control rate is above 85%).

As to `COC(C)C[S@@+]([O-])c1c(C(F)(F)F)ccc(C(=O)Nc2nnc(C)o2)c1F` (stereo partly shown) [Compound 74], the “weeding effect … Echinochloa crusgali” value with Echinochloa crusgali was 5 (Level 5: growth control rate is above 85%). Besides, the “weeding effect … Digitaria sanguinalis” value in the assay with Digitaria sanguinalis is reported as 5 (Level 5: growth control rate is above 85%). Also, the “weeding effect … Abutilon theophrasti” value in the assay with Abutilon theophrasti is given as 5 (Level 5: growth control rate is above 85%). In addition, the “weeding effect … Amaranthus retroflexus” value with Amaranthus retroflexus is 5 (Level 5: growth control rate is above 85%). The “weeding effect … Setaria viridis” value in the assay with Setaria viridis is on record as 5 (Level 5: growth control rate is above 85%).

Turning to `CCC[S@@+]([O-])c1c(C(F)(F)F)ccc(C(=O)Nc2nnc(C)o2)c1OCC` [Compound 532], the “weeding effect … Echinochloa crusgali” value with Echinochloa crusgali was 5 (Level 5: growth control rate is above 85%). Moreover, the “weeding effect … Digitaria sanguinalis” value in the assay on Digitaria sanguinalis was 5 (Level 5: growth control rate is above 85%). The “weeding effect … Abutilon theophrasti” value in the assay with Abutilon theophrasti was 5 (Level 5: growth control rate is above 85%). Moreover, the “weeding effect … Amaranthus retroflexus” value in the assay on Amaranthus retroflexus is reported as 5 (Level 5: growth control rate is above 85%). Also, the “weeding effect … Setaria viridis” value in the assay on Setaria viridis is on record as 5 (Level 5: growth control rate is above 85%).

Consider `CSCC[S@@+]([O-])c1c(C(F)(F)F)ccc(C(=O)Nc2nnc(C)o2)c1F` [Compound 204], for which the “weeding effect … Echinochloa crusgali” value in the assay on Echinochloa crusgali is reported as 5 (Level 5: growth control rate is above 85%). In the assay with Digitaria sanguinalis, the “weeding effect … Digitaria sanguinalis” value is 5 (Level 5: growth control rate is above 85%). The “weeding effect … Abutilon theophrasti” value in the assay on Abutilon theophrasti is given as 5 (Level 5: growth control rate is above 85%). Moreover, the “weeding effect … Amaranthus retroflexus” value in the assay with Amaranthus retroflexus is reported as 5 (Level 5: growth control rate is above 85%). Further, in the assay with Setaria viridis, the “weeding effect … Setaria viridis” value is given as 5 (Level 5: growth control rate is above 85%).

For `CC#CC[S@@+]([O-])c1c(C(F)(F)F)ccc(C(=O)Nc2nnc(C)o2)c1OC` [Compound 316], the “weeding effect … Echinochloa crusgali” value with Echinochloa crusgali is listed as 5 (Level 5: growth control rate is above 85%). For the same molecule, the “weeding effect … Digitaria sanguinalis” value with Digitaria sanguinalis is listed as 5 (Level 5: growth control rate is above 85%). For the same molecule, the “weeding effect … Abutilon theophrasti” value with Abutilon theophrasti is recorded as 5 (Level 5: growth control rate is above 85%). In addition, the “weeding effect … Amaranthus retroflexus” value in the assay with Amaranthus retroflexus is recorded as 5 (Level 5: growth control rate is above 85%). Further, in the assay on Setaria viridis, the “weeding effect … Setaria viridis” value is 5 (Level 5: growth control rate is above 85%).

As to `C#CC[S@@+]([O-])c1c(C(F)(F)F)ccc(C(=O)Nc2nnc(C)o2)c1OC` [Compound 314], in the assay with Echinochloa crusgali, the “weeding effect … Echinochloa crusgali” value is recorded as 5 (Level 5: growth control rate is above 85%). Moreover, in the assay with Digitaria sanguinalis, the “weeding effect … Digitaria sanguinalis” value is on record as 5 (Level 5: growth control rate is above 85%). The “weeding effect … Abutilon theophrasti” value in the assay on Abutilon theophrasti was 5 (Level 5: growth control rate is above 85%). The “weeding effect … Amaranthus retroflexus” value in the assay on Amaranthus retroflexus is 5 (Level 5: growth control rate is above 85%). Further, in the assay on Setaria viridis, the “weeding effect … Setaria viridis” value is listed as 5 (Level 5: growth control rate is above 85%).

With `COc1c(C(=O)Nc2nnc(C)o2)ccc(C(F)(F)F)c1[S@+]([O-])CC(=O)O` [Compound 341], the “weeding effect … Echinochloa crusgali” value in the assay on Echinochloa crusgali is 5 (Level 5: growth control rate is above 85%). In addition, the “weeding effect … Digitaria sanguinalis” value in the assay with Digitaria sanguinalis is listed as 5 (Level 5: growth control rate is above 85%). Further, in the assay on Abutilon theophrasti, the “weeding effect … Abutilon theophrasti” value is on record as 5 (Level 5: growth control rate is above 85%). Besides, the “weeding effect … Amaranthus retroflexus” value with Amaranthus retroflexus is reported as 5 (Level 5: growth control rate is above 85%). Besides, the “weeding effect … Setaria viridis” value in the assay on Setaria viridis is 5 (Level 5: growth control rate is above 85%).

Turning to `COc1c(C(=O)Nc2nnc(C)o2)ccc(C(F)(F)F)c1[S@+]([O-])CC(F)F` [Compound 323], in the assay with Echinochloa crusgali, the “weeding effect … Echinochloa crusgali” value is 5 (Level 5: growth control rate is above 85%). The “weeding effect … Digitaria sanguinalis” value with Digitaria sanguinalis is listed as 5 (Level 5: growth control rate is above 85%). Moreover, in the assay with Abutilon theophrasti, the “weeding effect … Abutilon theophrasti” value is listed as 5 (Level 5: growth control rate is above 85%). The “weeding effect … Amaranthus retroflexus” value in the assay on Amaranthus retroflexus is 5 (Level 5: growth control rate is above 85%). Besides, the “weeding effect … Setaria viridis” value in the assay with Setaria viridis is given as 5 (Level 5: growth control rate is above 85%).

For the molecule `CC=CC[S+]([O-])c1c(C(F)(F)F)ccc(C(=O)Nc2nnc(C)o2)c1OC` (stereo not shown) [Compound 313], in the assay on Echinochloa crusgali, the “weeding effect … Echinochloa crusgali” value is reported as 5 (Level 5: growth control rate is above 85%). Further, in the assay on Digitaria sanguinalis, the “weeding effect … Digitaria sanguinalis” value is on record as 5 (Level 5: growth control rate is above 85%). Also, in the assay with Abutilon theophrasti, the “weeding effect … Abutilon theophrasti” value is reported as 5 (Level 5: growth control rate is above 85%). In addition, the “weeding effect … Amaranthus retroflexus” value in the assay on Amaranthus retroflexus is listed as 5 (Level 5: growth control rate is above 85%). In addition, the “weeding effect … Setaria viridis” value in the assay with Setaria viridis is 5 (Level 5: growth control rate is above 85%).

As for `COCC[S@@+]([O-])c1c(C(F)(F)F)ccc(C(=O)Nc2nnc(C)o2)c1SC` [Compound 565], the “weeding effect … Echinochloa crusgali” value with Echinochloa crusgali is 5 (Level 5: growth control rate is above 85%). Moreover, in the assay with Digitaria sanguinalis, the “weeding effect … Digitaria sanguinalis” value was 5 (Level 5: growth control rate is above 85%). In the assay with Abutilon theophrasti, the “weeding effect … Abutilon theophrasti” value was 5 (Level 5: growth control rate is above 85%). The “weeding effect … Amaranthus retroflexus” value in the assay on Amaranthus retroflexus is recorded as 5 (Level 5: growth control rate is above 85%). The “weeding effect … Setaria viridis” value in the assay with Setaria viridis was 5 (Level 5: growth control rate is above 85%).

For the molecule `COc1c(C(=O)Nc2nnc(C)o2)ccc(C(F)(F)F)c1[S@+]([O-])CCO` [Compound 334], the “weeding effect … Echinochloa crusgali” value with Echinochloa crusgali was 5 (Level 5: growth control rate is above 85%). In addition, the “weeding effect … Digitaria sanguinalis” value in the assay with Digitaria sanguinalis was 5 (Level 5: growth control rate is above 85%). Also, in the assay on Abutilon theophrasti, the “weeding effect … Abutilon theophrasti” value was 5 (Level 5: growth control rate is above 85%). For the same molecule, the “weeding effect … Amaranthus retroflexus” value in the assay on Amaranthus retroflexus is recorded as 5 (Level 5: growth control rate is above 85%). Further, the “weeding effect … Setaria viridis” value with Setaria viridis is given as 5 (Level 5: growth control rate is above 85%).
